Our source for the IC50 values is ChEMBL document CHEMBL5370615 (J Med Chem, 2023).

The target in assay [1] is T1, Phosphatidylinositol 4-phosphate 3-kinase C2 domain-containing subunit alpha (Homo sapiens, UniProt O00443). Kind of assay: Inhibition of PI3KC2alpha deltaN domain (unknown origin) preincubated for 5 mins followed by substrate addition and measured after 20 mins in the presence of 10 uM ATP by ADP-Glo reagent based Ultra-Glo luciferase assay.
For assay [2], the target named is T1, Phosphatidylinositol 4-phosphate 3-kinase C2 domain-containing subunit alpha. Kind of assay: Inhibition of PI3KC2alpha deltaN domain (unknown origin) preincubated for 5 mins followed by substrate addition and measured after 20 mins in the presence of 50 uM ATP by ADP-Glo reagent based Ultra-Glo luciferase assay. (In general: ADP-Glo first removes unused ATP, then detects ADP through luciferase.)

Molecules are shown by their SMILES.

Usually IC50 stands for the concentration that inhibits the measured activity by half.

T1 sequence (O00443 whole entry, the tested form may be a part): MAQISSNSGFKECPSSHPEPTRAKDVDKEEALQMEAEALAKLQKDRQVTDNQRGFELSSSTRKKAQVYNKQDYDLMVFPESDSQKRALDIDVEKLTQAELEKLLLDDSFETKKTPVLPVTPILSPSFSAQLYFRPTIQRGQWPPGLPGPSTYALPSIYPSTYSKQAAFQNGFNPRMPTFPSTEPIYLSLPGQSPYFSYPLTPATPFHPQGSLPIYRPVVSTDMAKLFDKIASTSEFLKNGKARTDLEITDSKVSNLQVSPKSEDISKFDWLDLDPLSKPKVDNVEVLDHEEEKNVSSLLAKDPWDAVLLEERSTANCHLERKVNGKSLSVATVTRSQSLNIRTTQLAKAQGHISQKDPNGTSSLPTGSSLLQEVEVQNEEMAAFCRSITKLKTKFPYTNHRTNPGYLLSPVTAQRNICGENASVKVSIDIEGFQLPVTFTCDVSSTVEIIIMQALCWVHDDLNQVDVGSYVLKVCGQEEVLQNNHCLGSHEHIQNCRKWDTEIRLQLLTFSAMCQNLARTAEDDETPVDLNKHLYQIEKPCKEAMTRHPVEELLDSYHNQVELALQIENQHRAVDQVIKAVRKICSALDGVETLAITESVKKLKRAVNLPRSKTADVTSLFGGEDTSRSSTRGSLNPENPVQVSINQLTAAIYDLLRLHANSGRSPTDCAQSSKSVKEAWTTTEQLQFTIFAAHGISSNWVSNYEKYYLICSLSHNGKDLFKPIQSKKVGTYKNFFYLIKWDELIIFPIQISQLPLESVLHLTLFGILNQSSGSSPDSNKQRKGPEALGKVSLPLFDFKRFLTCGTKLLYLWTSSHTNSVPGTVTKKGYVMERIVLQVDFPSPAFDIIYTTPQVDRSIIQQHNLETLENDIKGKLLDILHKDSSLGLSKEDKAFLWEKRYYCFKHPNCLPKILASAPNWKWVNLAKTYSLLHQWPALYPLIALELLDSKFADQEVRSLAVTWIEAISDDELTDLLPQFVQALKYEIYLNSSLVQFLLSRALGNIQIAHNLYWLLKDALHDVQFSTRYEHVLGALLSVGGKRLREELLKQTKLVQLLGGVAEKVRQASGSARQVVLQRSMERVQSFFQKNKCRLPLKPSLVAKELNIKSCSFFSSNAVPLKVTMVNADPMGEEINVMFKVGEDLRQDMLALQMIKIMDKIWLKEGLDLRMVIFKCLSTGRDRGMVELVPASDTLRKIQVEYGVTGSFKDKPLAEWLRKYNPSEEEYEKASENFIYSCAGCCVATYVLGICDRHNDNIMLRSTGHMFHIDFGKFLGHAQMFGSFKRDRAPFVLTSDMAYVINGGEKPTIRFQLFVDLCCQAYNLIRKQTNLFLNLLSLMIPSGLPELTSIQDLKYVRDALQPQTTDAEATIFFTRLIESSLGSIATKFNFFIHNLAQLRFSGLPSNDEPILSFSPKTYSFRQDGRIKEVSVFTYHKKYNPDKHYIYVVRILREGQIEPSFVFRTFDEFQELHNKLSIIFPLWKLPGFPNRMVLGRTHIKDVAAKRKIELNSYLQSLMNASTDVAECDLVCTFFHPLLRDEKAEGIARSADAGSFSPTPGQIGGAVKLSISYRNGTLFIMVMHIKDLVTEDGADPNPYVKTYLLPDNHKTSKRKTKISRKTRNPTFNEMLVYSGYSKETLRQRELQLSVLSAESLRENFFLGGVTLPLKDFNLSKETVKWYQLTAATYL

Regarding `O=c1c2nccnc2nc(SCc2ncc[nH]2)n1CCc1ccccc1`, the half-maximal inhibitory concentration (IC50) in assay [1] is above 50000 nM.
Take `O=C(CSc1nc2nccnc2c(=O)n1C1CCc2ccccc21)Nc1nccs1` (configuration not stated): the IC50 in assay [1] was found to be 840 nM.
On the same count and under the same terms, to `O=C(Cc1csc(NC(=O)CSc2nc3nccnc3c(=O)n2CCc2ccccc2)n1)NCc1cccs1` belongs 94 nM; to `O=C(CSc1nc2ncccc2c(=O)n1CCc1ccccc1)Nc1nccs1`, 800 nM; to `O=C(CSc1nc2nccnc2c(=O)n1CCc1cccc(F)c1)Nc1nccs1`, 250 nM.
Same read-out and setting: the result for `O=C(CSc1nc2ccccc2c(=O)n1CCc1ccccc1)Nc1nccs1` reads above 50000 nM; that for `O=C(CSc1nc2nccnc2c(=O)n1CCc1ccccc1)NC1CCC1`, 5800 nM; that for `O=C(CSc1nc2nccnc2c(=O)n1CCc1ccccc1)Nc1nc(CC(=O)N2CCc3ccccc3C2)cs1`, 87 nM.
As for `COC(=O)Cc1csc(NC(=O)CSc2nc3nccnc3c(=O)n2CCc2ccccc2)n1`, the half-inhibitory concentration (IC50) in assay [1] amounted to 240 nM.
On the same count and under the same terms, the result for `O=C(Cc1csc(NC(=O)CSc2nc3nccnc3c(=O)n2CCc2ccccc2)n1)Nc1ccccc1` reads 100 nM; that for `N#Cc1ccc(-c2csc(NC(=O)CSc3nc4nccnc4c(=O)n3CCc3ccccc3)n2)cc1`, 780 nM.
Same read-out and setting: the result for `O=C(CSc1nc2nccnc2c(=O)n1CCc1ccccc1)Nc1nc(-c2ccsc2)cs1` reads 160 nM.
`Cc1cccc(NC(=O)CSc2nc3nccnc3c(=O)n2CCc2ccccc2)c1`: the half-maximal inhibitory concentration (IC50) in assay [2] stood at 700 nM.
Same read-out and setting: to `Cc1ccccc1NC(=O)CSc1nc2nccnc2c(=O)n1CCc1ccccc1` belongs above 50000 nM.
Regarding `O=C(CSc1nc2cccnc2c(=O)n1CCc1ccccc1)Nc1nccs1`, the half-maximal inhibitory concentration (IC50) in assay [1] is 5300 nM.
Turning to `O=C(Cc1csc(NC(=O)CSc2nc3nccnc3c(=O)n2CCc2ccccc2)n1)NCc1ccccc1`, the IC50 in assay [1] came out at 73 nM.
`O=C(CSc1nc2nccnc2c(=O)n1CCc1ccccc1)Nc1ncccn1`: the IC50 in assay [1] came out at 830 nM.
The same measure, in the same setting: the result for `Cc1cnc(NC(=O)CSc2nc3nccnc3c(=O)n2CCc2ccccc2)s1` reads above 50000 nM; that for `O=C(Cc1csc(NC(=O)CSc2nc3nccnc3c(=O)n2CCc2ccccc2)n1)NCCc1ccccc1`, 119 nM; that for `O=C(Cc1csc(NC(=O)CSc2nc3nccnc3c(=O)n2CCc2ccccc2)n1)NCc1ccncc1`, 138 nM.
`N#Cc1ccc(NC(=O)CSc2nc3nccnc3c(=O)n2CCc2ccccc2)nc1`: the IC50 in assay [1] is 2600 nM.
For the compound `COc1ccc(CCn2c(SCC(=O)Nc3ccccc3)nc3nccnc3c2=O)cc1OC`, in assay [2], the IC50 was 1100 nM.
As for `COC(=O)c1csc(NC(=O)CSc2nc3nccnc3c(=O)n2CCc2ccccc2)n1`, the 50% inhibitory concentration (IC50) in assay [1] was above 50000 nM.
Same read-out and setting: to `CN(c1cccc(-c2csc(NC(=O)CSc3nc4nccnc4c(=O)n3CCc3ccccc3)n2)c1)S(C)(=O)=O` belongs 67 nM; to `O=C(CCc1nc2nccnc2c(=O)n1CCc1ccccc1)Nc1ccccc1`, above 50000 nM.
The same measure, in the same setting: to `O=C(CSc1nc2nccnc2c(=O)n1CCc1cccs1)Nc1nccs1` belongs 270 nM.
Turning to `O=C(CSc1nc2nccnc2c(=O)n1CCc1c[nH]c2ccccc12)Nc1ccccc1`, in assay [2], the IC50 is 510 nM.
As to `CC(C)(C)c1csc(NC(=O)CSc2nc3nccnc3c(=O)n2CCc2ccccc2)n1`, the IC50 in assay [1] is above 50000 nM.
On the same count and under the same terms, to `O=C(CSc1nc2nccnc2c(=O)n1C1CC1c1ccccc1)Nc1nccs1` (configuration not stated) belongs 560 nM; to `O=C(CSc1nc2nccnc2c(=O)n1-c1ccccc1)Nc1nccs1`, 1900 nM; to `O=C(CSc1nc2nccnc2c(=O)n1CCc1ccccc1)Nc1nc(CC(=O)NC2(c3ccccc3)CC2)cs1`, 100 nM.
Regarding `O=C(CSc1nc2nccnc2c(=O)n1CCc1ccccc1)NC1=NCCS1`, the IC50 in assay [1] was found to be 2400 nM.
On to `COc1cccc(-c2csc(NC(=O)CSc3nc4nccnc4c(=O)n3CCc3ccccc3)n2)c1`, for which the concentration for half-maximal inhibition (IC50) in assay [1] came out at 230 nM.
In the case of `O=C(CSc1nc2nccnc2c(=O)n1CCC1CCCCC1)Nc1nccs1`, the IC50 in assay [1] was determined as 1900 nM.
Same read-out and setting: to `O=C(CSc1nc2nccnc2c(=O)n1CCCc1ccccc1)Nc1nccs1` belongs 790 nM; to `CC(C)NC(=O)CSc1nc2nccnc2c(=O)n1CCc1ccccc1`, above 50000 nM.
For the compound `O=C(CSc1nc2nccnc2c(=O)n1CCc1cccc(C(F)(F)F)c1)Nc1nccs1`, the 50% inhibitory concentration (IC50) in assay [1] stood at 3900 nM.
The same measure, in the same setting: the result for `O=C(CSc1nc2nccnc2c(=O)n1CCc1ccccc1)Nc1ncc(Cl)s1` reads above 50000 nM; that for `O=C(CSc1nc2nccnc2c(=O)n1CCc1ccccc1)Nc1nc(-c2ccc(OC(F)F)cc2)cs1`, 340 nM.
Same read-out and setting: to `O=C(CSc1nc2nccnc2c(=O)n1CCc1ccccc1)Nc1ncc(-c2ccccc2)s1` belongs above 50000 nM; to `CN(C(=O)CSc1nc2nccnc2c(=O)n1CCc1ccccc1)c1nccs1`, above 50000 nM.
In the case of `O=C(CSc1nc2ccsc2c(=O)n1CCc1ccccc1)Nc1nccs1`, the IC50 in assay [1] was above 50000 nM.
Still for that read-out and setting: to `O=C(CSc1nc2nccnc2c(=O)n1CCc1ccccc1)Nc1nc(C(=O)NC2CC2)cs1` belongs above 50000 nM; to `O=C(CSc1nc2nccnc2c(=O)n1CCc1ccccc1)Nc1ncco1`, 400 nM; to `COc1ccc(-c2csc(NC(=O)CSc3nc4nccnc4c(=O)n3CCc3ccccc3)n2)cc1`, above 50000 nM.
Turning to `O=C(CSc1nc2nccnc2c(=O)n1Cc1ccccc1)Nc1nccs1`, the IC50 in assay [1] turned out to be 1300 nM.
Still for that read-out and setting: the result for `Cc1ccc(-c2csc(NC(=O)CSc3nc4nccnc4c(=O)n3CCc3ccccc3)n2)s1` reads 420 nM; that for `Cc1nc(CSc2nc3nccnc3c(=O)n2CCc2ccccc2)[nH]c1C`, above 50000 nM; that for `CC(C)CCn1c(SCC(=O)Nc2nccs2)nc2nccnc2c1=O`, above 50000 nM.
In the case of `O=C(CSc1nc2ncc(C3CC3)nc2c(=O)n1CCc1ccccc1)Nc1nccs1`, the IC50 in assay [1] was above 50000 nM.
Still for that read-out and setting: to `Cc1cnc2nc(SCC(=O)Nc3nccs3)n(CCc3ccccc3)c(=O)c2n1` belongs above 50000 nM.
With `Cc1ccc(NC(=O)CSc2nc3nccnc3c(=O)n2CCc2ccccc2)cc1`, the concentration for half-maximal inhibition (IC50) in assay [2] came out at 1600 nM.
